Drawing on PubChem BioAssay (NCI), this text covers TGI and GI50 for 13 compounds.

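Growth conditions: 96-well plates. Treatment: test compound, 48 hours, 5 concentrations. Analysis: linear interpolation between bracketing concentrations; unreached endpoints set to highest concentration. GI50 is the concentration that inhibits growth by half. TGI marks complete inhibition of growth.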

Some test systems named below: A498 renal; A549 NSCLC; KM12 colon; RPMI-8226 leukemia; SF-539 CNS; SK-MEL-28 melanoma; SW-620 colon; U251 CNS; SF-268 CNS.
Holding throughout (assay): NCI-60 cell line screen, 48 h

As to `Cc1cn(C2CC(O)C(COC(=O)c3ccccc3)O2)c(=O)[nH]c1=O` (stereo not given), the TGI in the assay with A498 renal, with A549 NSCLC, with KM12 colon, in the assay on RPMI-8226 leukemia, with SF-539 CNS and in the assay on SK-MEL-28 melanoma was over 100 µM each time. Further, the TGI in the assay with SW-620 colon and in the assay with U251 CNS was over 100 µM throughout.

As to `O=C(Oc1cccc2cccnc12)c1cc2c(cc1Cl)SC(N(c1ccc(F)cc1)S(=O)(=O)c1ccc(Br)s1)=NS2(=O)=O`, the GI50 in the assay with A498 renal was 34.9 µM; in the assay with A549 NSCLC, 27.1 µM; in the assay on KM12 colon it was 44.2 µM; with RPMI-8226 leukemia, 28.6 µM; in the assay with SF-268 CNS, 35.7 µM; in the assay on SF-539 CNS, 23.4 µM. Besides, the GI50 is 40.9 µM in the assay with SK-MEL-28 melanoma, 25.3 µM in the assay with SW-620 colon and 26 µM in the assay with U251 CNS. The TGI in the assay with A498 renal was over 100 µM; in the assay with A549 NSCLC, over 100 µM; with KM12 colon it was over 100 µM; with RPMI-8226 leukemia, 96.3 µM; with SF-268 CNS, over 100 µM; in the assay on SF-539 CNS it was 75.2 µM. For the same compound, the TGI is over 100 µM in the assay on SK-MEL-28 melanoma, over 100 µM in the assay with SW-620 colon and 95.6 µM in the assay on U251 CNS.

Consider `COc1ccc(NC(=O)C(=O)c2c(O)c3ccc(O)cc3oc2=O)c([N+](=O)[O-])c1`, for which the TGI in the assay on A498 renal, with A549 NSCLC, in the assay with KM12 colon, in the assay with SF-268 CNS, with SF-539 CNS and in the assay with SK-MEL-28 melanoma was over 100 µM in each case. In the assay on SW-620 colon, this compound registered a TGI of over 100 µM.

`CCCCCN(CCCCC)C(=O)[C@@H](CCC(=O)O)NC(=O)c1cc2ccccc2[nH]1`: the TGI with A498 renal is over 100 µM; in the assay with A549 NSCLC it was over 100 µM; in the assay on KM12 colon it was over 100 µM; in the assay with RPMI-8226 leukemia, 35.4 µM; with SF-268 CNS it was 82.9 µM; in the assay with SF-539 CNS, 49.4 µM. Besides, the TGI is 57.5 µM in the assay with SK-MEL-28 melanoma, over 100 µM in the assay on SW-620 colon and 78.1 µM with U251 CNS.

Regarding `CC(C)(O)[C@@H]1CC[C@@]2(C)CCCC(O)C2(O)C1` (stereo not given in full), the TGI in the assay with A498 renal, in the assay on A549 NSCLC, in the assay on KM12 colon, with RPMI-8226 leukemia, in the assay on SF-268 CNS and with SF-539 CNS was over 100 µM in each case. In addition, the TGI in the assay with SK-MEL-28 melanoma, in the assay with SW-620 colon and in the assay with U251 CNS was over 100 µM throughout.

`Cc1c(Cl)cccc1NC(=O)C(=O)C(C(=O)c1ccccc1-c1ccccc1)C1OC(=O)c2ccccc21` (stereo not given): the TGI amounted to 66.8 µM with A549 NSCLC; 39.4 µM in the assay on KM12 colon; 59.1 µM in the assay on RPMI-8226 leukemia; 61.7 µM in the assay with SF-268 CNS; 28.1 µM in the assay on SF-539 CNS; 44.7 µM with SK-MEL-28 melanoma. The TGI with SW-620 colon came to 49 µM; with U251 CNS it was 29.2 µM.

`N.N.N.N.N.[Co+3].[I-].[N-]=[N+]=[N-]`: the GI50 in the assay on A498 renal is over 100 µM; in the assay with A549 NSCLC it was over 100 µM; with KM12 colon, over 100 µM; with RPMI-8226 leukemia, 35.5 µM; with SF-268 CNS, over 100 µM; with SF-539 CNS it was over 100 µM. For the same compound, the GI50 with SK-MEL-28 melanoma, with SW-620 colon and with U251 CNS was over 100 µM in each case. For the same compound, the TGI with A498 renal, in the assay on A549 NSCLC, in the assay on KM12 colon, with RPMI-8226 leukemia, in the assay with SF-268 CNS and with SF-539 CNS was over 100 µM in each case. Moreover, the TGI with SK-MEL-28 melanoma, in the assay on SW-620 colon and in the assay with U251 CNS was over 100 µM each time.

Consider `C/C(=C1/N=C(c2cc([N+](=O)[O-])ccc2Cl)N(c2cccc(C)c2)C1=O)c1cc2ccccc2oc1=O`, for which the TGI with A498 renal is over 100 µM; with A549 NSCLC, over 100 µM; in the assay on KM12 colon, over 100 µM; with RPMI-8226 leukemia it was 72 µM; with SF-268 CNS it was over 100 µM; in the assay on SK-MEL-28 melanoma, over 100 µM. In addition, in the assay with SW-620 colon, the TGI was over 100 µM.

For `COC(=O)C(Cc1cc(OC)c(OC)c(OC)c1)C(=O)OC`, the TGI in the assay on A549 NSCLC, in the assay on KM12 colon, with RPMI-8226 leukemia, in the assay on SF-268 CNS, in the assay on SK-MEL-28 melanoma and in the assay with SW-620 colon was over 320 µM each time. In the assay with U251 CNS, this compound registered a TGI of over 320 µM.

For the compound `O=C1C2Nc3ccccc3SC2C(=O)N1c1ccc(Br)cc1` (stereo not given), the TGI in the assay with A498 renal was 82.5 µM; with A549 NSCLC, over 100 µM; in the assay with KM12 colon, over 100 µM; in the assay with RPMI-8226 leukemia, over 100 µM; in the assay with SF-268 CNS it was over 100 µM; with SF-539 CNS, over 100 µM. Also, the TGI with SK-MEL-28 melanoma and with SW-620 colon was over 100 µM in each case.

On to `CCOC(=O)C1Cc2c(cc3c4c(cccc24)N(C(C)=O)C3)N(C)C1` (stereo not given), for which the TGI in the assay on A498 renal is over 100 µM; with A549 NSCLC, over 100 µM; in the assay on KM12 colon it was over 100 µM; with RPMI-8226 leukemia it was over 100 µM; in the assay with SF-268 CNS it was over 100 µM; with SF-539 CNS, 10.1 µM. Further, the TGI in the assay with SK-MEL-28 melanoma, in the assay on SW-620 colon and in the assay on U251 CNS was over 100 µM in each case.

For `Cn1c2c(c3ccccc31)CCN(CCCCN1CCCCC1)C2=O`, the TGI in the assay on A498 renal, in the assay with A549 NSCLC, in the assay with RPMI-8226 leukemia, in the assay on SF-268 CNS, with SF-539 CNS and in the assay on SK-MEL-28 melanoma was over 100 µM throughout. For the same compound, the TGI in the assay on SW-620 colon and with U251 CNS was over 100 µM in each case.

Turning to `CN(CCN1C(=O)c2cc([N+](=O)[O-])cc3cc([N+](=O)[O-])cc(c23)C1=O)CCN1C(=O)c2cc([N+](=O)[O-])cc3cc([N+](=O)[O-])cc(c23)C1=O`, the TGI with A498 renal is over 100 µM; in the assay with A549 NSCLC, over 100 µM; in the assay with KM12 colon, over 35 µM; with RPMI-8226 leukemia it was over 21.2 µM; in the assay on SF-268 CNS, over 100 µM; with SF-539 CNS it was over 58.8 µM. The TGI in the assay on SK-MEL-28 melanoma is 20.3 µM; in the assay on SW-620 colon it was 16.7 µM; in the assay on U251 CNS, over 100 µM.
